{
  "source": "patent US20250034089A1",
  "about": "“TETRAHYDROCARBAZOLE COMPOUND, AND PHARMACEUTICAL COMPOSITION AND USE THEREOF” (NAIN BIOTECH (HANGZHOU) CO., LTD., priority 2021, published 2025)",
  "key": {"[1]": {"system": "JAK1/2-STAT3 signaling pathway", "test": "Inhibitory effect on JAK/STAT signaling pathway biomarkers in HeLa cells (Western blot)", "assay_type": "cell-based, human", "conditions": "HeLa 3A11, 1, 10, 100 μM, 72 hours, FIG. 4", "protocol": "• 1) Cell source: HeLa cell line 3A11 with endogenous high expression of OCT4, prepared by the inventor's laboratory. • 2) Cell culture and passage: The cell culture and passage method is the same as that described in “The inhibitory effect of compounds on the OCT4 protein in tumor stem cells (CSC)”. • 3) Cell dosing treatment: The above-mentioned HeLa cells were digested, counted, and inoculated into each well of the 96 well cell culture plate (#3988, Corning) at a density of 5000 cells/200 μl culture medium. They were cultured in a cell culture incubator at 37° C. and 5% CO2 for 24 hours to allow the cells to fully adherent to the wall. Then, the original culture medium was replaced with complete culture medium containing 1 μM, 10 μM, and 100 μM KZT compounds or AH057 (each compound at each concentration with 3 repeated wells) as well as DMSO (#D5879, Sigma Aldrich) solvent control, and they are cultured for additional 72 hours. • 4) Preparation of test samples: The preparation of test samples method is the same as that described in “The inhibitory effect of compounds on the OCT4 protein in tumor stem cells (CSC)”. • 5) Detection of JAK/STAT signaling pathway biomarker: HeLa cells have been reported to continuously activate JAK1/2 and further activate STAT3 through the IL-6 autocrine pathway. […]"}, "Caski cells": {"system": "Caski cells", "test": "Tumor microspheres cultured in Caski cells", "assay_type": "cell-based, human", "conditions": "10 μM, 48 hours", "protocol": "• 1) Cell sources: cervical cancer cells HeLa and Caski, liver cancer cells Hep3B and Huh7 were all purchased from the Chinese Academy of Sciences cell bank (Shanghai). • 2) Tumor microsphere culture: The specific culture method for tumor microspheres can be found in the literature (Cheng J et al. Tryptophan derivatives regulate the transfer of Oct4 in stem-like cancer cells. Nat Commun. 2015, 6:7209). Each tumor cell was cultured separately in a medium containing 2% B27, 10 ng/ml BFGF, 5 ng/ml EGF, and 10 ng/ml LIF to form CSC rich tumor microspheres. • 3) Cell dosing treatment: HeLa cell lines and Huh7 cell lines were inoculated in a 6-well plate containing the aforementioned culture medium at a density of 200 cells per well, while Hep3B cell lines and Caski cell lines were inoculated in a 6-well plate containing the aforementioned culture medium at a density of 2000 cells per well. KZT-A5 or AH057 at concentrations of 1 μM or 10 μM was added, and the morphology of tumor microspheres was observed, photographed and recorded after 48 hours of treatment."}, "[2]": {"system": "LO2 (human normal liver cells)", "test": "In vitro proliferation inhibition (CCK-8), LO2", "assay_type": "cell-based", "from_the_text": "• 1) Cell sources: HeLa (human cervical cancer cells), CaSki (human cervical cancer intestinal metastasis cells), Huh7 (human liver cancer cells), HepG2 (human liver cancer cells), Hep3B (human liver cancer cells) were purchased from the Chinese Academy of Sciences cell bank (Shanghai); LO2 (human normal liver cells) and HcerEpic (human normal uterine epithelial cells) were from ATCC. • 2) Cell culture and passage: The cell culture and passage method is the same as that described in “The inhibitory effect of compounds on the OCT4 protein in tumor stem cells (CSC)”. • 3) Cell dosing treatment: The each type of cells mentioned above was digested, counted, and inoculated in each well of the 96 well cell culture plate (#3988, Corning) at a density of 5000 cells/200 μl culture medium. They were cultured in a cell culture incubator at 37° C. and 5% CO2 for 24 hours to allow the cells to fully adherent to the wall. Then, the original culture medium was replaced with complete culture medium containing gradient diluted KZT-A5 (each concentration with 3 repeated wells) as well as DMSO (#D5879, Sigma Aldrich) solvent control, and they are cultured for additional 72 hours. • 4) Pharmacodynamic test and statistics: First, the morphology of cells treated with the above compounds was observed, photographed and recorded using an inverted phase contrast microscope (X71, Olympus). Then the original culture medium was replaced with phenol red free culture medium containing CCK-8 detection reagent (#E606335, Shanghai Shenggong) respectively, and they are cultured in the incubator for additional 2 hours. Then the OD450 nm absorbance value (OD value) was measured on a multifunctional enzyme-linked immunosorbent assay (168-1130, Bio Rad). […] Further, the IC50 of each compound was calculated in SPSS based on the inhibition rate. […]"}},
  "data": [
    {"smiles": "COc1cc(/C=C2\\CCc3c([nH]c4ccc(C)cc34)C2=O)ccc1O", "note": "[KZT-A5]", "values": [
      {"measurement": "inhibition of activation of JAK1/2-STAT3 signaling pathway", "setting": "[1]", "result": "effectively inhibit the activation of the JAK1/2-STAT3 signaling pathway in a dose-dependent manner"},
      {"measurement": "inhibitory effect on tumor microspheres compared with AH057", "setting": "Caski cells", "result": "more significant than that of the control compound AH057"},
      {"measurement": "IC50", "setting": "[2]; LO2, 72 hours, CCK-8, average of three wells in one test", "result": 82.1, "unit": "µM"},
      {"measurement": "IC50", "setting": "[2]; LO2, test (2), average±standard deviation of three wells", "result": "96.5 ± 13", "unit": "µM"}
    ]}
  ]
}
